# Assay results reported in US20190218504A1, “METHODS OF CULTURING AURANTIOCHYTRIUM USING ACETATE AS AN ORGANIC CARBON SOURCE” (HELIAE DEVELOPMENT LLC, priority 2016, published 2019).
# Like-named read-outs stand apart in the source and are kept apart here.
# How the values were obtained:
# [1] = tested on: Aurantiochytrium sp. HS399; settings: FIG. 1; pH set point 5.5 and 7
# Method: An experiment was performed to determine the ability of Aurantiochytrium to grow on combination of acetate and another organic carbon source in axenic and contaminated culture conditions. […] The initial culture medium was supplemented with 30 g/L glycerol and 0.5 g/L acetate. […] Cell dry weights were measured daily.
# [2] = tested on: Aurantiochytrium sp. HS399; settings: Table 19
# Method: (§1) An experiment was performed to determine the effectiveness of growing Aurantiochytrium with combination of acetate and a non-acetate organic carbon sources, in this case glycerol. Aurantiochytrium sp. HS399 was grown in a 100 L open pond. The base medium contained: sodium acetate (1 g/L), glycerol (30 g/L) monosodium glutamate monohydrate (2.5 g/L) NaCl (12.5 g/L), MgSO4.7H2O (2.5 g/L), KCl (0.5 g/L), CaCl2 (0.1 g/L), KH2PO4 (0.5 g/L), vitamins (1 ml/L), and trace metal (5 ml/L). Trace and vitamins stocks were prepared according to Ashford, et al. 2000. Lipids 35, 1377-1386. The ponds were inoculated at 1 v/v using exponentially growing cultures. Aeration was maintained at 0.5 vvm using a porous hose. In one treatment the pH was controlled at a set point of pH 7 with hydrochloric acid, and no acetic acid was supplied (i.e., glycerol only). In another treatment acetic acid was supplied by a pH auxostat system at a set point of 5.5 in addition to the glycerol. The impact on microalgae growth and contamination was analyzed by measuring dry weights (filtration), residual acetate concentration in the culture medium (HPLC), and total aerobic bacteria counts (petrifilms) daily.
# aerobic bacteria = settings: throughout the batch, Table 20
# Method: as §1
# [3] = tested on: Aurantiochytrium sp. HS399; settings: cultures with a pH of 5 and above
# Method: Aurantiochytrium was grown in an acetic acid/pH-auxostat mode in 700 ml bubble column at 27° C. in sterile conditions. […] Trace and vitamins stocks were prepared according to Ashford, et al. 2000.
# [4] = tested on: Aurantiochytrium sp. HS399; settings: for growth with nitrogen source under an acetic acid pH auxostat system: pH 5.5 or 6.0
# [5] = tested on: Aurantiochytrium sp. HS399
# Method: An experiment was performed to determine if Aurantiochytrium sp. HS399 can grow using acetate as an organic carbon source and ammonia as a nitrogen source. Aurantiochytrium was grown in an acetic acid/pH-auxostat mode in 700 ml bubble column at 27° C. in sterile conditions. The base medium contained: NaCl (12.5 g/L), MgSO4.7H2O (2.5 g/L), KCl (0.5 g/L). CaCl2) (0.1 g/L), KH2PO4 (0.125 g/L) vitamins (0.25 ml/L) and trace metal (1.25 ml/L). Trace and vitamins stocks were prepared according to Ashford, et al. 2000. Lipids 35, 1377-1386. A blend of ammonium (hydroxide and acetic acid 1:5 w/w) with slightly higher molar ratio of acetic acid (1:1.1) was prepared with the aim maintain residual acetate present until the end of the pH auxostat. The pH auxostat was set to pH 6.6. The ammonium acetate blend was added to the treatments in order to match the following concentrations: 1×: 1.07 g/L NH4, 5.68 g/L acetic acid, 3×: 3.21 g/L NH4, 17.04 g/L acetic acid, 5×: 5.35 g/L NH4, 28.40 g/L acetic acid, 7×: 7.49 g/L NH4, 39.76 g/L acetic acid.
smiles,measurement,setting,value
"CC(=O)O [Acetic Acid, acetic acid]",growth in axenic and contaminated cultures versus cultures not receiving acetic acid,[1],comparable growth
same,"growth compared to the other culture (glycerol only, HCl)",[2],comparable growth
same,decrease of aerobic bacteria counts as compared to the other treatment,aerobic bacteria,≥ 3 log
same,growth using acetate as an organic carbon source,[3],able to grow
"N[C@@H](CCC(=O)O)C(=O)[O-].[Na+] [MSG, monosodium glutamate]",Cell Dry Weight,"[4]; pH 5.5, 2.5 g/L, time 1 d",2.6 ± 0.0 g/L
same,Cell Dry Weight,"[4]; pH 5.5, 2.5 g/L, time 2 d",5.2 ± 0.0 g/L
same,Cell Dry Weight,"[4]; pH 5.5, 2.5 g/L, time 3 d",7.5 ± 0.2 g/L
same,Cell Dry Weight,"[4]; pH 5.5, 2.5 g/L, time 4 d",8.8 ± 0.4 g/L
same,Cell Dry Weight,"[4]; pH 5.5, 2.5 g/L, time 5 d",10.4 ± 0.4 g/L
same,Cell Dry Weight,"[4]; pH 5.5, 2.5 g/L, time 6 d",11.4 ± 0.3 g/L
same,growth with nitrogen source under an acetic acid pH auxostat system,[4],could grow
same,Cell Dry Weight,"[4]; pH 6.0, 10 g/L, time 1 d",3.6 ± 0.3 g/L
same,Cell Dry Weight,"[4]; pH 6.0, 10 g/L, time 2 d",6.1 ± 0.1 g/L
same,Cell Dry Weight,"[4]; pH 6.0, 10 g/L, time 4 d",7.9 ± 2.0 g/L
same,Cell Dry Weight,"[4]; pH 6.0, 10 g/L, time 6 d",11.9 ± 2.6 g/L
"CC(=O)O.N [NH4AoC, ammonium acetate]",Cell Dry Weight,"[4]; pH 5.5, 1.1 g/L, time 0 d",0.2 ± 0.0 g/L
same,Cell Dry Weight,"[4]; pH 5.5, 1.1 g/L, time 1 d",2.5 ± 0.1 g/L
same,Cell Dry Weight,"[4]; pH 5.5, 1.1 g/L, time 2 d",4.9 ± 0.1 g/L
same,Cell Dry Weight,"[4]; pH 5.5, 1.1 g/L, time 3 d",7.5 ± 0.3 g/L
same,Cell Dry Weight,"[4]; pH 5.5, 1.1 g/L, time 4 d",8.9 ± 0.2 g/L
same,Cell Dry Weight,"[4]; pH 5.5, 1.1 g/L, time 5 d",10.7 ± 0.3 g/L
same,Cell Dry Weight,"[4]; pH 5.5, 1.1 g/L, time 6 d",11.8 ± 0.1 g/L
same,growth with nitrogen source under an acetic acid pH auxostat system,[4],could grow
same,Cell Dry Weight,"[4]; pH 6.0, 4.5 g/L, time 0 d",0.2 ± 0.0 g/L
same,Cell Dry Weight,"[4]; pH 6.0, 4.5 g/L, time 1 d",2.6 ± 0.1 g/L
same,Cell Dry Weight,"[4]; pH 6.0, 4.5 g/L, time 2 d",5.4 ± 0.4 g/L
same,Cell Dry Weight,"[4]; pH 6.0, 4.5 g/L, time 3 d",7.8 ± 0.1 g/L
same,Cell Dry Weight,"[4]; pH 6.0, 4.5 g/L, time 4 d",9.8 ± 0.5 g/L
same,Cell Dry Weight,"[4]; pH 6.0, 4.5 g/L, time 5 d",11.9 ± 0.2 g/L
same,Cell Dry Weight,"[4]; pH 6.0, 4.5 g/L, time 6 d",13.8 ± 0.2 g/L
same,Cell Dry Weight,"[5]; 1X (1.07 g/L NH4, 5.68 g/L acetic acid), time 0 d",0.6 ± 0.0 g/L
same,Cell Dry Weight,"[5]; 1X, time 1 d",2.2 ± 0.0 g/L
same,Cell Dry Weight,"[5]; 1X, time 2 d",4.8 ± 0.0 g/L
same,Cell Dry Weight,"[5]; 1X, time 3 d",7.0 ± 0.1 g/L
same,Cell Dry Weight,"[5]; 1X, time 4 d",7.9 ± 0.1 g/L
same,Cell Dry Weight,"[5]; 1X, time 5 d",8.7 ± 0.2 g/L
same,Cell Dry Weight,"[5]; 1X, time 6 d",9.4 ± 0.1 g/L
same,growth on ammonium acetate blends,"[5]; 1× and 3× blends, pH 6.6",able to grow
same,Cell Dry Weight,"[5]; 3X (3.21 g/L NH4, 17.04 g/L acetic acid), time 0 d",0.6 ± 0.0 g/L
same,Cell Dry Weight,"[5]; 3X, time 1 d",1.7 ± 0.1 g/L
same,Cell Dry Weight,"[5]; 3X, time 2 d",3.6 ± 0.3 g/L
same,Cell Dry Weight,"[5]; 3X, time 3 d",5.2 ± 0.1 g/L
same,Cell Dry Weight,"[5]; 3X, time 4 d",6.5 ± 0.3 g/L
same,Cell Dry Weight,"[5]; 3X, time 5 d",6.8 ± 0.3 g/L
same,Cell Dry Weight,"[5]; 3X, time 6 d",7.5 ± 0.1 g/L
same,Cell Dry Weight,"[5]; 5X (5.35 g/L NH4, 28.40 g/L acetic acid), time 0 d",0.6 ± 0.0 g/L
same,Cell Dry Weight,"[5]; 5X, time 1 d",0.8 ± 0.2 g/L
same,Cell Dry Weight,"[5]; 5X, time 2 d",0.7 ± 0.1 g/L
same,Cell Dry Weight,"[5]; 5X, time 3 d",0.7 ± 0.0 g/L
same,Cell Dry Weight,"[5]; 5X, time 4 d",0.8 ± 0.1 g/L
same,Cell Dry Weight,"[5]; 5X, time 5 d",0.3 ± 0.0 g/L
same,Cell Dry Weight,"[5]; 5X, time 6 d",0.4 ± 0.0 g/L
same,Cell Dry Weight,"[5]; 7X (7.49 g/L NH4, 39.76 g/L acetic acid), time 0 d",0.6 ± 0.0 g/L
same,Cell Dry Weight,"[5]; 7X, time 1 d",1.0 ± 0.2 g/L
same,Cell Dry Weight,"[5]; 7X, time 2 d",0.6 ± 0.1 g/L
same,Cell Dry Weight,"[5]; 7X, time 3 d",0.7 ± 0.0 g/L
same,Cell Dry Weight,"[5]; 7X, time 4 d",0.8 ± 0.1 g/L
same,Cell Dry Weight,"[5]; 7X, time 5 d",0.3 ± 0.0 g/L
same,Cell Dry Weight,"[5]; 7X, time 6 d",0.6 ± 0.1 g/L
